{"source": "patent US20060286131A1", "about": "“Use of stellate ganglion block for the treatment of hot flashes and other conditions” (priority 2005, published 2006)", "tested_on": "severe menopausal hot flashes", "test": "stellate ganglion block with Marcaine in women with hot flashes, self-reported pre and post block", "format": "in vivo", "description": "A stellate ganglion block is illustratively performed by placing the patient in the supine position (on the back) with the neck slightly extended and the jaw open. While the patient is usually conscious for the procedure, a medication such as Versed (midazolam hydrochloride), fentanyl, or other sedative is often administered, to relax the patient. A local anesthetic is also usually administered, to numb the skin and tissue down to the ganglion nerve. A needle is inserted toward the stellate ganglion. […] The needle 20 is shown inserted adjacent to the stellate ganglion 10. In the illustrative block, a contrast solution is injected through needle 20 via syringe 22, and the needle position is confirmed by fluoroscopy or other means, as are known in the art.\nThe anesthetic 30 is then injected via needle 20 into stellate ganglion 10. Illustratively, 5 cc 0.375% Marcaine® (bupivacaine) may be used. However, it is understood that other anesthetics, illustratively lidocaine, morphine or other opioids, clonidine, botox, or tetracine, or a combination of anesthetic and epinephrine, may be used and that the dosage range may vary depending on the particular anesthetic and other factors, as are known in the art. Needle 20 is removed, and the patient is optionally placed in the sitting position to facilitate the spread of anesthesia inferiorly to the stellate ganglion. Illustratively, longer acting anesthetics such as bupivacaine are used, but other anesthetics may be used, as are known in the art. The stellate ganglion block may also be performed by radiofrequency lesioning, as is known in the art.\nSix women suffering from severe menopausal hot flashes each received a standard stellate ganglion block (0.375% Marcaine, 5cc), as described above. Hot flashes were assessed by self-reporting pre and post stellate ganglion block."}
{"compound": "CCCCN1CCCCC1C(=O)Nc1c(C)cccc1C", "note": "(stereo not shown) [Marcaine, bupivacaine]", "values": [{"measurement": "additional asymptomatic period of relief after second stellate ganglion block", "setting": "0.375% Marcaine 5cc, second block after mild hot flashes returned", "result": "4-18 weeks"}, {"measurement": "hot flash relief of repeated blocks compared with the initial block", "setting": "repeated blocks, each case", "result": "equal to or greater than that of the initial block"}, {"measurement": "success of initial stellate ganglion block, evidenced by positive Horner's syndrome and anhydrosis", "setting": "six women, 0.375% Marcaine 5cc", "result": "successful in all six subjects"}, {"measurement": "complete alleviation of hot flashes, duration after initial stellate ganglion block", "setting": "six women, 0.375% Marcaine 5cc, first block, self-reported", "result": "2-5 weeks"}]}
